Laboratory results as given in PubChem BioAssay AID318 (DTP/NCI, 2004).
Where “and” joins values, the source holds several entries; their conditions need not be identical. Identical values can stand only once. Toxic doses and inconclusive results are not listed.

System: BDF1 mice, P815 leukemia ip, survival T/C
Test: NCI In Vivo Anticancer Drug Screen. Data for tumor model P815 Mast Cell Leukemia (Ascitic) (intraperitoneal) in B6D2F1 (BDF1) mice
Details: higher = longer survival
Procedure: The antitumor activity of compounds was measured in mice bearing transplantable tumors. Survival or tumor size were measured and the results are expressed as the measurement made in the treated group (T) divided by the measurement made in the vehicle treated control group (C). The tumor model used in this assay is P815 Mast Cell Leukemia (Ascitic) (intraperitoneal) in B6D2F1 (BDF1) mice

[1] = endpoint: survival time, mean or median, dose: 2.5 mg/kg/injection, schedule: Q01DX010 (ip), vehicle: saline
[2] = endpoint: survival time, mean or median, dose: 5.0 mg/kg/injection, schedule: Q01DX010 (ip), vehicle: saline
[3] = endpoint: survival time, mean or median, dose: 10.0 mg/kg/injection, schedule: Q01DX010 (ip), vehicle: saline
[4] = endpoint: survival time, mean or median, dose: 3.13 mg/kg/injection, schedule: Q01DX010 (ip), vehicle: saline
[5] = endpoint: survival time, mean or median, dose: 6.25 mg/kg/injection, schedule: Q01DX010 (ip), vehicle: saline
[6] = endpoint: survival time, mean or median, dose: 12.5 mg/kg/injection, schedule: Q01DX010 (ip), vehicle: saline
[7] = endpoint: survival time, mean or median, dose: 25.0 mg/kg/injection, schedule: Q01DX010 (ip), vehicle: saline
[8] = endpoint: survival time, mean or median, dose: 50.0 mg/kg/injection, schedule: Q01DX010 (ip), vehicle: saline
[9] = endpoint: survival time, mean or median, dose: 100.0 mg/kg/injection, schedule: Q01DX010 (ip), vehicle: saline
[10] = endpoint: survival time, mean or median, dose: 125.0 mg/kg/injection, schedule: Q01DX010 (ip), vehicle: saline
[11] = endpoint: survival time, mean or median, dose: 250.0 mg/kg/injection, schedule: Q01DX010 (ip), vehicle: saline
[12] = endpoint: survival time, mean or median, dose: 500.0 mg/kg/injection, schedule: Q01DX010 (ip), vehicle: saline

`Cc1nc(CON)cs1` was tested, and the T/C (endpoint: median survival time, dose: 50.0 mg/kg/injection, schedule: Q01DX015 (ip), vehicle: saline) was 90 % of control and the T/C (endpoint: median survival time, dose: 100.0 mg/kg/injection, schedule: Q01DX015 (ip), vehicle: saline) was 94 % of control.

For `CC[n+]1c(-c2ccccc2)c2cc(N)ccc2c2ccc(N)cc21`, the T/C (endpoint: survival time, mean or median, dose: 0.12 mg/kg/injection, schedule: Q01DX015 (ip), vehicle: saline) was 105 % of control, the T/C (endpoint: survival time, mean or median, dose: 0.25 mg/kg/injection, schedule: Q01DX015 (ip), vehicle: saline) was 109 % of control and the T/C (endpoint: survival time, mean or median, dose: 0.5 mg/kg/injection, schedule: Q01DX015 (ip), vehicle: saline) was 120 % of control. The T/C (endpoint: survival time, mean or median, dose: 1.0 mg/kg/injection, schedule: Q01DX015 (ip), vehicle: saline) was 117 % of control, the T/C (endpoint: survival time, mean or median, dose: 2.0 mg/kg/injection, schedule: Q01DX015 (ip), vehicle: saline) was 208 % of control and the T/C (endpoint: survival time, mean or median, dose: 5.0 mg/kg/injection, schedule: Q01DX015 (ip), vehicle: saline) was 163 % of control. The T/C (endpoint: survival time, mean or median, dose: 10.0 mg/kg/injection, schedule: Q01DX015 (ip), vehicle: saline) was 87 % of control.

For `Nc1nc(=S)c2[nH]cnc2[nH]1`, the T/C [1] was 95 % of control, the T/C [2] was 122 % of control and the T/C [3] was 90 % of control and 118 % of control.

`N=[N+]=CC(=O)OCC(N)C(=O)O` (centres undefined) was tested, and the T/C [4] was 110 % of control and 111 % of control, the T/C [5] was 118 % of control and 119 % of control and the T/C [6] was 100 % of control and 123 % of control.

For `C[C@H]1C(=O)O[C@@H]2CCN3CC=C(COC(=O)[C@](C)(O)[C@@]1(C)O)[C@H]23`, the T/C [4] was 94 % of control and 100 % of control, the T/C [5] was 100 % of control and 105 % of control and the T/C [6] was 88 % of control and 94 % of control. For the same compound, the T/C [7] was 100 % of control.

For `CC(C)CNS(=O)(=O)c1ncnc2nc[nH]c12`, the T/C (endpoint: survival time, mean or median, dose: 37.5 mg/kg/injection, schedule: Q01DX015 (ip), vehicle: carboxymethylcellulose (CMC)) was 97 % of control.

`CS(=O)(=O)OCCC(=O)N1CCN(C(=O)CCOS(C)(=O)=O)CC1` was tested, and the T/C [6] was 105 % of control, the T/C [7] was 222 % of control and the T/C [8] was 211 % of control and 285 % of control. For the same compound, the T/C [9] was 183 % of control and 160 % of control.

In the case of `COc1ccc2c(c1OC)C(=O)O[C@@H]2[C@H]1c2c(cc3c(c2OC)OCO3)CCN1C`, the T/C (endpoint: survival time, mean or median, dose: 62.5 mg/kg/injection, schedule: Q01DX015 (ip), vehicle: carboxymethylcellulose (CMC)) is reported as 101 % of control, the T/C (endpoint: survival time, mean or median, dose: 125.0 mg/kg/injection, schedule: Q01DX015 (ip), vehicle: carboxymethylcellulose (CMC)) is reported as 95 % of control and the T/C (endpoint: survival time, mean or median, dose: 250.0 mg/kg/injection, schedule: Q01DX015 (ip), vehicle: carboxymethylcellulose (CMC)) is reported as 96 % of control. The T/C (endpoint: survival time, mean or median, dose: 500.0 mg/kg/injection, schedule: Q01DX015 (ip), vehicle: carboxymethylcellulose (CMC)) was 93 % of control.

`OCC1OC(n2cnc3c(=S)nc[nH]c32)C(O)C1O` (centres undefined) was tested, and the T/C (endpoint: survival time, mean or median, dose: 20.0 mg/kg/injection, schedule: Q01DX010 (ip), vehicle: saline) was 104 % of control and 116 % of control, the T/C (endpoint: survival time, mean or median, dose: 40.0 mg/kg/injection, schedule: Q01DX010 (ip), vehicle: saline) was 91 % of control and 108 % of control and the T/C (endpoint: survival time, mean or median, dose: 80.0 mg/kg/injection, schedule: Q01DX010 (ip), vehicle: saline) was 95 % of control and 116 % of control.

For `NC12CC3CC(CC(C3)C1)C2`, the T/C [7] was 100 % of control, the T/C [8] was 100 % of control and the T/C [9] was 105 % of control.

For `CCOC(N)=O`, the T/C [10] was 100 % of control, the T/C [11] was 100 % of control and 118 % of control and the T/C [12] was 100 % of control and 104 % of control.

In the case of `Oc1cc(CN(CCCl)CCCl)c(O)cc1CN(CCCl)CCCl`, the T/C (endpoint: survival time, mean or median, dose: 0.63 mg/kg/injection, schedule: Q01DX010 (ip), vehicle: saline) is reported as 111 % of control, the T/C (endpoint: survival time, mean or median, dose: 1.25 mg/kg/injection, schedule: Q01DX010 (ip), vehicle: saline) is reported as 116 % of control and 122 % of control and the T/C [1] is reported as 172 % of control. The T/C [2] was 122 % of control and the T/C [3] was 122 % of control.

`OCC1OC(n2cnc3c(Cl)ncnc32)C(O)C1O` (centres undefined) was tested, and the T/C (endpoint: survival time, mean or median, dose: 62.5 mg/kg/injection, schedule: Q01DX010 (ip), vehicle: saline) was 104 % of control and 108 % of control, the T/C [10] was 100 % of control and 104 % of control and the T/C [11] was 91 % of control and 100 % of control. For the same compound, the T/C [12] was 95 % of control.

With `CS(=O)(=O)OCCCl` the T/C (endpoint: survival time, mean or median, dose: 18.8 mg/kg/injection, schedule: Q01DX010 (ip), vehicle: saline) was 100 % of control and 105 % of control, the T/C (endpoint: survival time, mean or median, dose: 37.5 mg/kg/injection, schedule: Q01DX010 (ip), vehicle: saline) was 100 % of control and the T/C (endpoint: survival time, mean or median, dose: 75.0 mg/kg/injection, schedule: Q01DX010 (ip), vehicle: saline) was 100 % of control and 111 % of control.
